These results are taken from US20240304334A1, “CLOTTABILITY-BASED PERSONALIZED TREATMENT (CPT) SYSTEM” (priority 2021, published 2024).

Several values for one entry are separate records, joined by “and”; a condition that tells them apart may be missing. Identical values can stand only once.

The subject of data set [1] is fibrinogen and fibrin-derivatives. The experiment in a line: CCT before and after anticoagulant in healthy volunteers. Conditions: 6 healthy volunteers; for CCT average after treatment: 3 hrs after last intake, rivaroxaban 15 mg twice daily 2.5 days, apixaban 10 mg twice daily 3.5 days; for CCT average before treatment: just before anticoagulant intake; for difference in CCT after vs before treatment: not statistical significant. The format is in vivo, human. The method, then: The skilled person is aware of how to perform the CCT test. Thus, as an example, Multifibren-U from Siemens and/or HemoslL Fibrinogen-C from IL/Werfen can be used. Moreover, it is known that the CCT test can show a higher fibrinogen concentration than the actual concentration due to enhanced clotting efficiency by the pro-coagulable factors due to the thrombin activity. […] In such study, rivaroxaban study was performed on 6 healthy volunteers, with ages between 18-50 years. They fulfilled the criteria of normal vital signs and lab screening tests for infection, hematology and coagulation, and had no abnormalities at physical examination. They were given 15 mg rivaroxaban twice daily for 2.5 days. The dosage of twice-daily 15 mg was chosen as it is the highest approved dosage for the initial treatment of acute venous thromboembolism (VTE). The apixaban study was performed on another 6 healthy volunteers, with the same health profile requirements as rivaroxaban study. These 6 volunteers were given 10 mg apixaban twice daily for 3.5 days. Blood samples were drawn just before anticoagulants intake and 3 hrs after the last intake. Measurement of fibrinogen was in duplicate.

The next data set has as its system coagulation pathway. Nature of the data set: Clottability test (CCT minus TFT) in plasma of patients on anticoagulants, clinical study C. The format is in vivo, human. Conditions: individual patient plasma, single time point, on anticoagulant. The method, then:
For determination of the clottability of blood, combined clottability assays were performed using a (a) clot-based and (b) enzyme-based fibrinogen test. The information provided by the assay is whether the blood is normal-clottable, hyperclottable, or hypoclottable by measuring fibrinogen concentration in blood plasma.
To estimate the clotting dynamics, […]. Thus, clottability is determined by […] (clottability=CCT−TFT). Exemplary, high values after subtraction of the obtained concentrations of the tests indicate high amounts of pro-coagulable factors and thus increased thrombin activity. Therefore, the greater the in vivo thrombin activation, the higher the obtained values from the clottability test. This leads to the finding that high values relate to an increased clottability.
The skilled person is aware of how to perform the CCT test. Thus, as an example, Multifibren-U from Siemens and/or HemoslL Fibrinogen-C from IL/Werfen can be used. Moreover, it is known that the CCT test can show a higher fibrinogen concentration than the actual concentration due to enhanced clotting efficiency by the pro-coagulable factors due to the thrombin activity. […]

For data set [2] the following is noted: human, in vivo.
Description: Plasma samples from 19 patients were tested to investigate the coagulation pathway activity using the clottability test (CCT and TFT) and D-dimer test. These patients were receiving various anticoagulant drugs, such as rivaroxaban, apixaban, edoxaban, dabigatran, or argatroban, and the drug concentrations of each individual were determined. The aim of the study was to examine the activity of the coagulation pathway by means of both, the clottability test and D-dimer test in relation to the determined drug concentration in the plasma.
For data set [3] the following is noted: co-administering Rifampicin (P-glycoprotein inducer); cited from earlier work.
Data set [4] deals with patients with acute cerebral infarction (ACI). Nature of the data set: Glasgow coma score (GCS) in acute cerebral infarction patients. The format is in vivo, human. On the procedure: (§1) Seventy patients who had complete clinical record and were diagnosed with acute cerebral infarction (ACI), either validated by CT or MRI, were included into this study. They have to be the first time patients of ACI and the disease onset should be shorter than 72 hours, and the cause of the cerebral infarction was cardiac origin, and they were without abnormal renal function, without bleeding history and hemostatic abnormality. These 70 patients were divided into 2 groups, 35 in control group and the other 35 in observational group. The control group patients were treated with rivaroxaban (anticoagulant), while observational group patients were treated combined rivaroxaban and sodium ozagrel (anti-platelet). Sodium ozagrel inhibits platelet activation and aggregation through specific inhibition of thromboxane (TX) synthetase. Due to the inhibitory effect of ozagrel on platelet activation, platelets cease to become the main lipid surface of thrombin generation. Beside standard treatment such as enriched oxygen supply, etc, all 70 patients were treated with aspirin 100 mg/tablet/day. Additionally, the control and observational groups were given rivaroxaban 15 mg/tablet/day. On top of rivaroxaban, the observational group received intravenously and daily 80 mg of ozagrel sodium in 500 mL glucose (5%) solution. Everyone was treated for 2 weeks. Both groups have very similar age mean and range (40-70 years). The coma assessment was carried out before and after treatment on all subjects, based on Glasgow coma score (GCS) scoring system, which has 15 as full score. The degree of coma is lighter and is reflected with higher score. The recovery based on GCS is summarized in Table 4, together with CCT results.

Data set [5] shares this test system. Nature of the data set: Neurological assessment (NIHSS) in acute cerebral infarction patients. The format is in vivo, human. Particulars: ACI patients n=35, 2 weeks, plus aspirin 100 mg/day. On the procedure:
as §1, with “years). After 2 weeks of treatment, clinical efficacy (neurological assessments), coagulation lab tests (only CCT is shown) and GCS scores of the two groups were compared. Neurological […] according to NIH stroke scale (NIHSS). When NIHSS score reduces ≥90%, the disability classification is grade 0, and the treatment is highly efficacious. When NIHSS score reduces to between 46% and 89%, the disability classification is grade 1 to 3, the treatment is considered efficacious.” for “years).”, “The” for “The coma assessment was carried out before and after”, “is no efficacious, when the” for “on all subjects, based on Glasgow coma”, “score” for “score (GCS) scoring system, which has 15 as full score. The degree of coma”, “below 46%.” for “lighter and is reflected with higher score. The recovery based on GCS is summarized in Table 4, together with CCT results.”

Another data set relates to Fibrin(ogen). The experiment in a line: CCT in acute cerebral infarction patients. The format is in vivo, human. Particulars: ACI patients. The method, then:
as §1, with “years). After 2 weeks of treatment, clinical efficacy (neurological assessments), coagulation lab tests (only CCT is shown) and GCS scores of the two groups were compared. Neurological […] according to NIH stroke scale (NIHSS). When NIHSS score reduces ≥90%, the disability classification is grade 0, and the treatment is highly efficacious. When NIHSS score reduces to between 46% and 89%, the disability classification is grade 1 to 3, the treatment is considered efficacious.” for “years).”, “The” for “The coma assessment was carried out before and after”, “is no efficacious, when the” for “on all subjects, based on Glasgow coma”, “score” for “score (GCS) scoring system, which has 15 as full score. The degree of coma”, “below 46%.” for “lighter and is reflected with higher score. The recovery based on GCS is summarized in Table 4, together with CCT results.”

Data set [6] concerns AECOPD patients. Nature of the data set: Pulmonary function in AECOPD patients. The format is in vivo, human. The source says:
(§2) This is again another example how anticoagulant treatment reduces pathological in vivo thrombin generation with the concomitant reduction of fibrin-derivatives detectable by CCT. This example is a highly prevalent (>10%) progressive chronic disease, which has strong clinical manifestations of immune and coagulation systems. Chronic obstructive pulmonary disease (COPD) is an inflammatory lung disease that affects respiratory function with concomitant high thrombosis risk. In this example, study subjects were the 70 patients diagnosed with COPD and developed acute exacerbation form of COPD (AECOPD). On top of the standard AECOPD treatments e.g. anti-infection, bronchodilation, phlegm elimination, and oxygen treatment, etc, 32 of these AECOPD patients received no additional treatment and the other 38 of them were treated with low molecular weight heparin calcium (LMWH, 4100 IU anti-FXa/injection every 12 hrs, for 10 days).
(§3) Treatment efficacy was evaluated based on several parameters: pulmonary function, blood gas analysis and coagulation parameters. All this information were obtained before and after the LMWH anticoagulant treatment, the same for the control group. The pulmonary function was measured with several methods, such as FEV1 (measurement of forced expiratory volume in 1 sec after bronchodilator was inhaled) and FVC (forced vital capacity, and the ratio of FEV/FVC in % as clinical signs of respiratory performance). Blood gas analysis was obtained by measuring oxygen saturation of blood (SO2), partial pressure of oxygen (PO2) and partial pressure of carbon dioxide (PCO2). Several blood coagulation parameters were measured; they are CCT, DD, PT-INR.

Another data set has as its system coagulation system. The experiment in a line: PT and INR in AECOPD patients. The format is in vivo, human.
Description: as §2, §3

The subject of the next data set is D-dimer. Nature of the data set: DD in AECOPD patients. The format is in vivo, human.
Description: as §2
(§4) Treatment efficacy was evaluated based on several parameters: pulmonary function, blood gas analysis and coagulation parameters. […] The pulmonary function was measured with several methods, such as FEV1 (measurement of forced expiratory volume in 1 sec after bronchodilator was inhaled) and FVC (forced vital capacity, and the ratio of FEV/FVC in % as clinical signs of respiratory performance). […] Several blood coagulation parameters were measured; they are CCT, DD, PT-INR.

The subject of data set [7] is fibrinogen and fibrin-derivatives. Nature of the data set: CCT in AECOPD patients. The format is in vivo, human.
Description: as §2, §4

The subject of data set [8] is AECOPD patients. Nature of the data set: Blood gas analysis in AECOPD patients. The format is in vivo, human. Particulars: for PCO2 / SO2: AECOPD.
Description: as §2, §3

On to `COc1ccc(-n2nc(C(N)=O)c3c2C(=O)N(c2ccc(N4CCCCC4=O)cc2)CC3)cc1` [apixaban], for which, in [1], the “CCT average after treatment” value stood at 2.38, the “CCT average before treatment” value was found to be 2.56 and the “difference in CCT after vs before treatment” value is −0.18. Besides, the Clottability test in the data set on coagulation pathway is > 1.5 g/L and 2.7 g/L and 0.8 g/L and 1.8 g/L.
As to `CC1CNc2c(cccc2S(=O)(=O)N[C@@H](CCCNC(=N)N)C(=O)N2CC[C@@H](C)C[C@@H]2C(=O)O)C1` (stereo partly drawn) [argatroban], in data set [2], the PK profile result is listed as “bottom”.
For the molecule `[H]/N=C(/N)c1ccc(NCc2nc3cc(C(=O)N(CCC(=O)O)c4ccccn4)ccc3n2C)cc1` [dabigatran], the “decrease of maximum plasma concentration of dabigatran” value in data set [3] is recorded as “approximately 67%”.
With `O=C(NC[C@H]1CN(c2ccc(N3CCOCC3=O)cc2)C(=O)O1)c1ccc(Cl)s1` [rivaroxaban], in data set [1], the “CCT average after treatment” value was 2.64, the “CCT average before treatment” value is 2.75 and the “difference in CCT after vs before treatment” value was −0.11. Further, in [4] (T0 before treatment), the GCS score is on record as 6.8 ± 1.11. The same molecule returned a GCS score in data set [4] (T1 after 2 weeks of treatment) of 9.07 ± 1.92. Also, the “GCS score, difference in mean” value in data set [4] (T1 vs T0) is reported as 2.27. Also, the Clottability test in the data set with coagulation pathway is > 1.5 g/L and 1.7 g/L and -0.5 g/L and 0.6 g/L and 2 g/L. Moreover, in data set [5], the “efficacious (NIHSS reduction 46% to 89%), number of patients” value was found to be 8; the “efficacious (NIHSS), share of patients” value was “(22.9%)”; the “highly efficacious (NIHSS score reduces ≥90%), number of patients” value is 16; the “highly efficacious (NIHSS), share of patients” value was “(45.7%)”. Further, in data set [5], the “non-efficacious (NIHSS below 46%), number of patients” value is recorded as 11; the “non-efficacious (NIHSS), share of patients” value is “(31.4%)”; the “total efficacious (NIHSS), number of patients” value worked out at 24; the “total efficacious (NIHSS), share of patients” value amounted to 68.6%. The “Fibrin(ogen) CCT” value in the data set on Fibrin(ogen) (T0 before treatment) stood at 3.93 ± 1.49. In addition, the “Fibrin(ogen) CCT” value with Fibrin(ogen) (T1 after 2 weeks of treatment) stood at 3.15 ± 1.12. The “Fibrin(ogen) CCT, difference in mean” value with Fibrin(ogen) (T1 vs T0) is recorded as −0.78.
As to “low molecular weight heparin calcium [LMWH]”, the FEV1 with AECOPD patients [6] (after treatment) came to 1.89 L; in the data set with AECOPD patients [6] (before treatment), 1.36 L. Further, the FEV1/FVC is reported as 78.4% in the data set with AECOPD patients [6] (after treatment) and 62.3% in the data set on AECOPD patients [6] (before treatment). Moreover, the INR stood at 1.36 in the data set on coagulation system (after treatment) and 0.87 in the data set with coagulation system (before treatment). For the same molecule, the PT is 13.7 with coagulation system (after treatment) and 9.6 in the data set with coagulation system (before treatment). Moreover, the DD in the data set on D-dimer (after treatment) was 237.4 µg/L; in the data set on D-dimer (before treatment), 482.8 µg/L. Also, the CCT in data set [7] (after treatment) is recorded as 2.16; in [7] (before treatment), 3.97. The PO2 in the data set on AECOPD patients [8] (AECOPD patients n=38, after 10 days LMWH plus standard treatment) came to 78.4 mmHg; in the data set on AECOPD patients [8] (AECOPD patients n=38, before treatment), 71.5 mmHg. For the same molecule, the PCO2 in the data set with AECOPD patients [8] (after treatment) turned out to be 41.9 mmHg; in the data set on AECOPD patients [8] (before treatment), 52.2 mmHg. The SO2 was determined as 98.6% with AECOPD patients [8] (after treatment) and 90.8% in the data set on AECOPD patients [8] (before treatment).
